# Where two headings read alike, the source gives them in different places.
# Tests used:
# [1] = target: T1, human glucocorticoid receptor-α [GRX] isoform (Homo sapiens, UniProt P04150); experiment: Radioligand binding with human glucocorticoid receptor cytosol ([3H]-dexamethasone competition)
# T1 construct: host or cells: insect SF21 cells (baculovirus)
# T1 sequence (P04150 1-777): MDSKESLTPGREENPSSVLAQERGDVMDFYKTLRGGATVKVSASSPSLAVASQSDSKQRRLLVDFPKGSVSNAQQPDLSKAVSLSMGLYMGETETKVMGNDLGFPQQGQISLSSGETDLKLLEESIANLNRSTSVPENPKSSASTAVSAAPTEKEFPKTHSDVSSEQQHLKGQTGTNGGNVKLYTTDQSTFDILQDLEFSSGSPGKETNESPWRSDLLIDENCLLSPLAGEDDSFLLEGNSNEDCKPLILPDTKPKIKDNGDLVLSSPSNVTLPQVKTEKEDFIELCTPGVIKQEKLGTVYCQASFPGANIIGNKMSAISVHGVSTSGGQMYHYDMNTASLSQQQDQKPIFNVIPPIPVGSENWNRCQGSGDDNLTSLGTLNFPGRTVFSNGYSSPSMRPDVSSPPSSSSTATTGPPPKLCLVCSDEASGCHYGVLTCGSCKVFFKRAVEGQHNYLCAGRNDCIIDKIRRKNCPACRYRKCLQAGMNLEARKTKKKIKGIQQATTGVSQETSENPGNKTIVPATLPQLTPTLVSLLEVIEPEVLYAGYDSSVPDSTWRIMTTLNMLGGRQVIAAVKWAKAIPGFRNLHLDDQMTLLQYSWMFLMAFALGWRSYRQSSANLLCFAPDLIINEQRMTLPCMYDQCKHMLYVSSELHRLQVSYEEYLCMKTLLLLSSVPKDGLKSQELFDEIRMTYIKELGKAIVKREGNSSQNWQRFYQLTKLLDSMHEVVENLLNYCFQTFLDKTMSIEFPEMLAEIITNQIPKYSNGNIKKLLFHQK
# [2] = target: T2, human progesterone receptor-A [PRA] isoform (Homo sapiens, UniProt P06401); experiment: Radioligand binding with human progesterone receptor cytosol ([3H]-progesterone competition); settings: PRA cytosol expressed in insect SF21 cells, [3H]Prog ~0.8 nM, 4° C. overnight; Ki by Cheng-Prusoff, KL ~4.5 nM; read-out: Ki (nM) PR
# T2 construct: host or cells: insect SF21 cells (baculovirus)
# T2 sequence (P06401 1-769 isoform P06401-2): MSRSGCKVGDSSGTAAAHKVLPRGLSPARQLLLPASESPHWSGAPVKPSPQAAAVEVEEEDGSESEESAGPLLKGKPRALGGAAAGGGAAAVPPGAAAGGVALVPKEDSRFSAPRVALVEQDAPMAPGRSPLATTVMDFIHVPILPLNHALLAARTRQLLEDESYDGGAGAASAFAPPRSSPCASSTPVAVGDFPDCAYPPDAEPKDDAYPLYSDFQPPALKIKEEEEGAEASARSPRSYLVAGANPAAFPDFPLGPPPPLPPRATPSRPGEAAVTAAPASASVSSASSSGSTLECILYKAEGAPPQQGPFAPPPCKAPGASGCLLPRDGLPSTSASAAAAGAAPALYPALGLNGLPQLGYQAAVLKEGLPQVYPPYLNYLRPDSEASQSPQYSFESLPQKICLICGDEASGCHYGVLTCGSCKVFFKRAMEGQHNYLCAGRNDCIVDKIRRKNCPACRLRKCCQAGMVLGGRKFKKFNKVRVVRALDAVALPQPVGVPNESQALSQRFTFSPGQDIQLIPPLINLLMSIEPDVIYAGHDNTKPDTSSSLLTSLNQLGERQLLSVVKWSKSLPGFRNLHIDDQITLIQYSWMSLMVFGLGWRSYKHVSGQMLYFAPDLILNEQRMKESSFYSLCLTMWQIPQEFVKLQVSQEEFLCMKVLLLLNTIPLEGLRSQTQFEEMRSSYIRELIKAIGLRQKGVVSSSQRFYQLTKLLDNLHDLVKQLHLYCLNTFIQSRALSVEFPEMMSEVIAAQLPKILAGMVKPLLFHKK
# [3] = GRX cytosol expressed in insect SF21 cells, [3H]-Dex ~0.9 nM, 4° C. overnight, Ki by Cheng-Prusoff, KL ~[…], read-out: Ki (nM) GR
SMILES,"Ki [1, 3] [nM]",Ki [2] [nM],Ki ([1]; Ki (nM) GR) [nM]
"COc1cccc2c1-c1ccc3c(c1C(c1cc(F)cc(F)c1)O2)C(C)=CC(C)(C)N3 (centres unmarked) [Example 34, 5-(3,5-Difluorophenyl)-2,5-dihydro-10-methoxy-2,2,4-trimethyl-1H-[1]benzopyrano[3,4-f]quinoline]",4,4710,
"COc1cccc2c1-c1ccc3c(c1C(c1cc(C)cc(Br)c1)O2)C(C)=CC(C)(C)N3 (centres unmarked) [Example 11, 5-(3-Bromo-5-methylphenyl)-2,5-dihydro-10-methoxy-2,2,4-trimethyl-1H-[1]benzopyrano[3,4-f]quinoline]",4.4,288,
COc1cccc2c1-c1ccc3c(c1[C@H]([C@H]1C=C(CO)CCC1)O2)C(C)=CC(C)(C)N3 (relative stereo) [Example 148],2.8,≥ 10000,
"COc1cccc2c1-c1ccc3c(c1C(C/C=C/CO)O2)C(C)=CC(C)(C)N3 (centres unmarked) [Example 195, (E) 2,5-Dihydro-10-methoxy-5-(4-hydroxy-2-buten-1-yl)-2,2,4-trimethyl-1H-[1]benzopyrano[3,4-f]quinoline]",25,≥ 10000,
"COc1cccc2c1-c1ccc3c(c1C(c1cccc(NCc4ccccc4)c1)O2)C(C)=CC(C)(C)N3 (centres unmarked) [Example 119, N-[3-(2,5-Dihydro-10-methoxy-2,2,4-trimethyl-1H-[1]benzopyrano[3,4-f]quinolin-5-yl)phenyl]benzenemethanamine]",6.9,≥ 10000,
"COc1cccc2c1-c1ccc3c(c1C(c1cccc(OC[S+](C)[O-])c1)O2)C(C)=CC(C)(C)N3 (centres unmarked) [Example 101, 2,5-Dihydro-10-methoxy-2,2,4-trimethyl-5-[3-[(methylsulfinyl)methoxy]phenyl]-1H-[1]benzopyrano[3,4-f]quionline]",11.4,≥ 10000,
"C=CCC1Oc2cccc(O)c2-c2ccc3c(c21)C(C)=CC(C)(C)N3 (centres unmarked) [Example 82, 2,5-Dihydro-2,2,4-trimethyl-5-(2-propenyl)-1H-1benzopyrano[3,4-f]quinolin-10-ol]",22.9,327,
"COc1cccc2c1-c1ccc3c(c1C(c1cccc(Br)c1)O2)C(C)=CC(C)(C)N3 (centres unmarked) [Example 52, 5-(3-Bromophenyl)-2,5-dihydro-10-methoxy-2,2,4-trimethyl-1H-[1]benzopyrano[3,4-f]quinoline]",3,2270,
"COC(=O)C1=C[C@@H]([C@@H]2Oc3ccc(O)c(OC)c3-c3ccc4c(c32)C(C)=CC(C)(C)N4)CC1 (racemic) [Example 271, (+/−)2,5-Dihydro-9-hydroxy-10-methoxy-2,2,4-trimethyl-5(S)-(3(S)-1-methylcarboxylatecyclopenten-3-yl)-1H-[1]benzopyrano[3,4-f]quinoline]",0.82,2290,
"C=CCC1Oc2cccc(NC)c2-c2ccc3c(c21)C(C)=CC(C)(C)N3 (centres unmarked) [Example 3, 2,5-Dihydro-2,2,4,N-tetramethyl-5-(2-propenyl)-1H-[1]benzopyrano[3,4-f]quinolin-10-amine]",4.8,2650,
"COc1cccc2c1-c1ccc3c(c1C(c1cc(C)cc(N4CCOCC4)c1)O2)C(C)=CC(C)(C)N3 (centres unmarked) [Example 17, 2,5-Dihydro-10-methoxy-2,2,4-trimethyl-5-[3-methyl-5-(1-morpholinyl)phenyl]-1H-[1]benzopyrano[3,4-f]quinoline]",39,≥ 10000,
"COc1cccc2c1-c1ccc3c(c1C(C1CCCCC1=O)O2)C(C)=CC(C)(C)N3 (single isomer, unassigned) [Example 142, 2,5-Dihydro-10-methoxy-5-(1-oxo-2-cyclohexyl)-2,2,4-trimethyl-1H-[1]benzopyrano[3,4-f]quinoline]",51,≥ 10000,
COc1cccc2c1-c1ccc3c(c1C(C1C=CCCC1)O2)C(C)=CC(C)(C)N3 (mixture of isomers) [Example 137],,2410,5.5
"COc1cccc2c1-c1ccc3c(c1C(c1ccc(OCc4ccccc4)cc1)O2)C(C)=CC(C)(C)N3 (centres unmarked) [Example 98, 2,5-Dihydro-10-methoxy-2,2,4-trimethyl-5-[4-(phenylmethoxy)phenyl]-1H-[1]benzopyranol[3,4-f]quinoline]",9.8,≥ 10000,
"C=CCC1Oc2cccc(COC)c2-c2ccc3c(c21)C(C)=CC(C)(C)N3 (centres unmarked) [Example 332, 2,5-Dihydro-10-methoxymethyl-5-(3-propenyl)-2,2,4-trimethyl-1H-[1]benzopyrano[3,4-f]quinoline]",18,≥ 10000,
"COc1ccc(C2Oc3cccc(OC)c3-c3ccc4c(c32)C(C)=CC(C)(C)N4)s1 (centres unmarked) [Example 40, 2,5-Dihydro-10-methoxy-2,2,4-trimethyl-5-(5-methoxy-2-thienyl)1H-[1]benzopyrano[3,4-f]quinoline]",18,18100,
"CC1=CC(C)(C)Nc2ccc3c(c21)C(c1cc(Cl)cc(Cl)c1)Oc1cccc(O)c1-3 (centres unmarked) [Example 80, 5-(3,5-Dichlorophenyl)-2,5-dihydro-2,2,4-trimethyl-1H-[1]benzopyrano[3,4-f]quinolin-10-ol]",168,≥ 10000,

# Second part, led by results:
"Ki [1, 3] [nM]",Ki [2] [nM],SMILES,Ki ([1]; Ki (nM) GR) [nM]
0.67,197,"COc1c(O)ccc2c1-c1ccc3c(c1C(C1CCCC1)O2)C(C)=CC(C)(C)N3 (centres unmarked) [Example 384, 2,5-Dihydro-9-hydroxy-10-methoxy-2,2,4-trimethyl-5-cyclopentyl-1H-[1]benzopyrano[3,4-f]quinoline]",
1.2,204,"C=CCC1Oc2ccc(OC(=O)CCC(=O)N3CCOCC3)c(OC)c2-c2ccc3c(c21)C(C)=CC(C)(C)N3 (centres unmarked) [Example 380, 2,5-Dihydro-9-(4-N-morpholino-4-oxo-butanoyloxy)-10-methoxy-2,2,4-trimethyl-5-(2-propenyl)-1H-[1]benzopyrano[3,4-f]quinoline]",
0.89,109,CC/C=C\CC1Oc2ccc(O)c(OC)c2-c2ccc3c(c21)C(C)=CC(C)(C)N3 (centres unmarked) [Example 394],
0.84,526,"COC(=O)CC1Oc2ccc(O)c(OC)c2-c2ccc3c(c21)C(C)=CC(C)(C)N3 (centres unmarked) [Example 281, Methyl 2-[2,5-Dihydro-9-hydroxy-10-methoxy-2,2,4-trimethyl-1H-[1]benzopyrano[3,4-f]-5-quinoline]acetate]",
9.9,3740,"COC(=O)C1=CC(C2Oc3ccc(O)c(OC)c3-c3ccc4c(c32)C(C)=CC(C)(C)N4)CCC1 (single isomer, unassigned) [Example 415]",
3.5,5960,"COc1c(O)ccc2c1-c1ccc3c(c1C(c1cccc(OCSC)c1)O2)C(C)=CC(C)(C)N3 (centres unmarked) [Example 400, 2,5-Dihydro-9-hydroxy-10-methoxy-2,2,4-trimethyl-5-(3-(methylthiomethoxy)phenyl)-1H-[1]benzopyrano[3,4-f]quinoline]",
2.7,42,"CC1=CC(C)(C)Nc2ccc3c(c21)C(CC(C)C)Oc1ccc(O)c(Cl)c1-3 (centres unmarked) [Example 409, 2,5-Dihydro-9-hydroxy-10-chloro-2,2,4-trimethyl-5-(2-methylpropyl)-1H-[1]benzopyrano[3,4-f]quinoline]",
1.4,175,"C=CCC1Oc2ccc(OC(=O)CCC(=O)N3CCCCC3)c(OC)c2-c2ccc3c(c21)C(C)=CC(C)(C)N3 (centres unmarked) [Example 379, 2,5-Dihydro-9-(4-N-piperidino-4-oxo-butanoyloxy)-10-methoxy-2,2,4-trimethyl-5-(2-propenyl)-1H-[1]benzopyrano[3,4-f]quinoline]",

# From patent publication US6506766B1 (Abbott Laboratories, priority 1998, dated 2003)
